What was measured:
HEK293 = assay: cells; type: functional, Homo sapiens, ATCC CRL1573; conditions: Homo sapiens, ATCC CRL1573, HEK293; ASSAY_TEST Inhibition of Cell Viability; detection method Resazurin; Fluorescence (ex560/em590); MEDIA DMEM with 10% FBS; plate type 384well; TC; CORNING #3712; time 18 hr; read-out: CC50
Pseudomonas aeruginosa [1] = assay: Antibacterial activity against Pseudomonas aeruginosa PAO397 [PAO1 d(mexAB-oprM) d(mexCD-oprJ) d(mexEF-oprN) d(mexJKL) d(mexXY) d(opmH)] (CO-ADD:GN_211); MIC in CAMBH media using NBS plates, by OD(600); type: functional; conditions: ASSAY_TEST Inhibition of Bacterial Growth, detection method Absorption (OD600), MEDIA CAMHB, plate type 384well, CORNING #3640, time 18 hr
Staphylococcus aureus = assay: microbe, parasite or virus in culture; conditions: ATCC 43300, 18 h, ASSAY_TEST Inhibition of Bacterial Growth, detection method Absorption (OD600), MEDIA CAMHB, plate type 384well, NBS, CORNING #3640
Description: Antibacterial activity against Staphylococcus aureus MRSA ATCC 43300 (CO-ADD:GP_020); MIC in CAMBH media, using NBS plates, by OD(600)

Escherichia coli = assay: microbe, parasite or virus in culture; conditions: ATCC 25922, 18 h, ASSAY_TEST Inhibition of Bacterial Growth, detection method Absorption (OD600), MEDIA CAMHB, plate type 384well, NBS, CORNING #3640
Description: Antibacterial activity against Escherichia coli ATCC 25922 (CO-ADD:GN_001); MIC in CAMBH media using NBS plates, by OD(600)

Klebsiella pneumoniae = assay: microbe, parasite or virus in culture; conditions: ATCC 700603, 18 h, ASSAY_TEST Inhibition of Bacterial Growth, detection method Absorption (OD600), MEDIA CAMHB, plate type 384well, NBS, CORNING #3640
Description: Antibacterial activity against Klebsiella pneumoniae MDR ATCC 70063 (CO-ADD:GN_003); MIC in CAMBH media using NBS plates, by OD(600)

Pseudomonas aeruginosa [2] = assay: microbe, parasite or virus in culture; conditions: ATCC 27853, 18 h, ASSAY_TEST Inhibition of Bacterial Growth, detection method Absorption (OD600), MEDIA CAMHB, plate type 384well, NBS, CORNING #3640
Description: Antibacterial activity against Pseudomonas aeruginosa ATCC 27853 (CO-ADD:GN_042); MIC in CAMBH media using NBS plates, by OD(600)

Acinetobacter baumannii = assay: microbe, parasite or virus in culture; conditions: ATCC 19606, 18 h, ASSAY_TEST Inhibition of Bacterial Growth, detection method Absorption (OD600), MEDIA CAMHB, plate type 384well, NBS, CORNING #3640
Description: Antibacterial activity against Acinetobacter baumannii ATCC 19606 (CO-ADD:GN_034); MIC in CAMBH media using NBS plates, by OD600

Candida albicans = assay: microbe, parasite or virus in culture; conditions: ATCC 90028, ASSAY_TEST Inhibition of Fungal Growth, detection method Absorption (OD530), plate type 384well, NBS, CORNING #3640
Description: Antifungal activity against Candida albicans ATCC 90028 (CO-ADD:FG_001); MIC in YNB media using NBS plates, by OD630

Description for Cryptococcus neoformans: Antifungal activity against Cryptococcus neoformans H99 ATCC 208821 (CO-ADD:FG_002); MIC in YNB media using NBS plates, by Resazurin OD(600-570)

Nc1nc(-c2ccccc2)nc2[nH]nc(Nc3ccc(C(F)(F)F)cc3)c12
> 20 µM: CC50 (HEK293) | MIC (Pseudomonas aeruginosa [1]) | MIC (Cryptococcus neoformans) | MIC (Staphylococcus aureus) | MIC (Escherichia coli) | MIC (Klebsiella pneumoniae) | MIC (Pseudomonas aeruginosa [2]) | MIC (Acinetobacter baumannii) | MIC (Candida albicans)

CC(C)CCN1C(=O)C(C2=NS(=O)(=O)c3cc(NS(C)(=O)=O)ccc3N2)=C(O)[C@@H]2[C@H]3CC[C@H](C3)[C@@H]21
> 20 µM: CC50 (HEK293) | MIC (Pseudomonas aeruginosa [1]) | MIC (Cryptococcus neoformans) | MIC (Staphylococcus aureus) | MIC (Escherichia coli) | MIC (Klebsiella pneumoniae) | MIC (Pseudomonas aeruginosa [2]) | MIC (Acinetobacter baumannii) | MIC (Candida albicans)

Cc1ccc(C)c(OCCCCCCN2C[C@H](O)[C@@H](O)[C@H](O)[C@H]2CO)c1
> 20 µM: CC50 (HEK293) | MIC (Pseudomonas aeruginosa [1]) | MIC (Cryptococcus neoformans) | MIC (Staphylococcus aureus) | MIC (Escherichia coli) | MIC (Klebsiella pneumoniae) | MIC (Pseudomonas aeruginosa [2]) | MIC (Acinetobacter baumannii) | MIC (Candida albicans)

NC(=O)c1[nH]c2ccc(S(N)(=O)=O)cc2c1-c1ccccc1
> 20 µM: CC50 (HEK293) | MIC (Pseudomonas aeruginosa [1]) | MIC (Cryptococcus neoformans) | MIC (Staphylococcus aureus) | MIC (Escherichia coli) | MIC (Klebsiella pneumoniae) | MIC (Pseudomonas aeruginosa [2]) | MIC (Acinetobacter baumannii) | MIC (Candida albicans)

COc1ccc2cc3[n+](cc2c1OCCN(CCn1cncn1)Cc1ccc(F)cc1F)CCc1cc2c(cc1-3)OCO2
> 20 µM: CC50 (HEK293) | MIC (Pseudomonas aeruginosa [1]) | MIC (Cryptococcus neoformans) | MIC (Staphylococcus aureus) | MIC (Escherichia coli) | MIC (Klebsiella pneumoniae) | MIC (Pseudomonas aeruginosa [2]) | MIC (Acinetobacter baumannii) | MIC (Candida albicans)

O=c1cc(Nc2ccc3ccccc3c2)[nH]c(=O)[nH]1
> 20 µM: CC50 (HEK293) | MIC (Pseudomonas aeruginosa [1]) | MIC (Cryptococcus neoformans) | MIC (Staphylococcus aureus) | MIC (Escherichia coli) | MIC (Klebsiella pneumoniae) | MIC (Pseudomonas aeruginosa [2]) | MIC (Acinetobacter baumannii) | MIC (Candida albicans)

COc1cccc(N2CCN(C3=Nc4c(F)cccc4[C@H](CC(=O)O)N3c3cc(C(F)(F)F)ccc3OC)CC2)c1 [LETERMOVIR]
> 20 µM: CC50 (HEK293) | MIC (Pseudomonas aeruginosa [1]) | MIC (Cryptococcus neoformans) | MIC (Staphylococcus aureus) | MIC (Escherichia coli) | MIC (Klebsiella pneumoniae) | MIC (Pseudomonas aeruginosa [2]) | MIC (Acinetobacter baumannii) | MIC (Candida albicans)

CC(C)C(=O)N[C@H]1[C@H]([C@H](O)[C@H](O)CO)OC(C(=O)O)=C[C@@H]1N=[N+]=[N-]
> 20 µM: CC50 (HEK293) | MIC (Pseudomonas aeruginosa [1]) | MIC (Cryptococcus neoformans) | MIC (Staphylococcus aureus) | MIC (Escherichia coli) | MIC (Klebsiella pneumoniae) | MIC (Pseudomonas aeruginosa [2]) | MIC (Acinetobacter baumannii) | MIC (Candida albicans)

Cc1oncc1C(=O)Nc1ccc(C(F)(F)F)cc1 [LEFLUNOMIDE]
> 20 µM: CC50 (HEK293) | MIC (Pseudomonas aeruginosa [1]) | MIC (Cryptococcus neoformans) | MIC (Staphylococcus aureus) | MIC (Escherichia coli) | MIC (Klebsiella pneumoniae) | MIC (Pseudomonas aeruginosa [2]) | MIC (Acinetobacter baumannii) | MIC (Candida albicans)

Reference: ChEMBL document CHEMBL4513161, “CO-ADD screening of MMV (CH) - Pandemic Response Box” (2021)
